Non-standard residues stand in square brackets, D forms with d. Residues, ends and D or L forms follow the SMILES beside them. No end group written: not given here. *: point of attachment. pGlu = O=C1CC[C@@H](C(=O)O)N1; Nle = CCCC[C@H](N)C(=O)O; βAla = NCCC(=O)O; NHPr = CCCN*
target: T1, human bombesin receptor 3 (BRS3), endogenous in NCI-N417 cells (human) (UniProt P32247); experiment: cell-based or functional assay; details: not given
T1 sequence: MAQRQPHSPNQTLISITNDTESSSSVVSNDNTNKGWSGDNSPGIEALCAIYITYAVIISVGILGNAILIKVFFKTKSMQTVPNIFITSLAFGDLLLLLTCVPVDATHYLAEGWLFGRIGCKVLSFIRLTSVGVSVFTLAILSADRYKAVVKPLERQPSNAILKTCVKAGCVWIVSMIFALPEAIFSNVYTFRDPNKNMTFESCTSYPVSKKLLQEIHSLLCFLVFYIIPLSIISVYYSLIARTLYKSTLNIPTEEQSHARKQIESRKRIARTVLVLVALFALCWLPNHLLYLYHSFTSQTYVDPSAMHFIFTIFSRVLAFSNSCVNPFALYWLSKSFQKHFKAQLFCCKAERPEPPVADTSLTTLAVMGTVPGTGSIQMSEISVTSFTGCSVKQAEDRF

| Efficacy; intracellular calcium (FLIPR) in NCI-N417 cells | pEG50 [sic, pEC50]; intracellular calcium (Fluo-3AM fluorescence, FLIPR) in NCI-N417 cells | Molecule |
| --- | --- | --- |
| 23% | < 5 -log10(M) | Bombesin (peptide) |
|  | 5.54 -log10(M) | PG-L (peptide) |
|  | 5.59 -log10(M) | Ranantensin (peptide) |
|  | 5.96 -log10(M) | [D-Phe^1, Nle^9]litorin (peptide) |
|  | 6.83 -log10(M) | [D-Phe^6, Phe^13]BN(6-13) propylamide (peptide) |
|  | 7.88 -log10(M) | [D-Phe^6, βAla^11, Phe^13, Nle^14]Bombesin(6-14) (peptide) |
|  | 5.86 -log10(M) | [D-Phe^6]BN(6-13) propylamide (peptide) |
|  | 8.02 -log10(M) | [D-Tyr^6, βAla^11, Phe^13, Nle^14]Bombesin(6-14) (peptide) |
| 20% |  | neuromedin C (NMC) (peptide) |
|  | 5.65 -log10(M) | GNLWATGHFM (peptide, UniProt P08949 47-56, looked up, species assumed, ends and bridges not checked) [neuromedin B (NMB)] |
| 23% | < 5 -log10(M) | VPLPAGGGTVLTKMYPRGNHWAVGHLM (peptide, UniProt P07492 24-50, looked up, species assumed, ends and bridges not checked) [gastrin-releasing peptide (GRP)] |
|  | 5.73 -log10(M) | Ac-LWATGHFM (peptide, UniProt P08949 49-56, looked up, species assumed, ends and bridges not checked) [AcNMB(3-10)] |

target: T2, endogenous human BRS-3 in NCI-N417 cells (Homo sapiens, UniProt P32247); experiment: Agonist pharmacology, FLIPR intracellular calcium (Fluo-3AM) in NCI-N417 cells; assay type: cell-based; details: not given
T2 construct: Agonist Pharmacology at the Endogenous Human BRS-3 in NCI-N417 Cells; endogenous in cells; host or cells: NCI-N417 cells
T2 sequence (P32247 1-399): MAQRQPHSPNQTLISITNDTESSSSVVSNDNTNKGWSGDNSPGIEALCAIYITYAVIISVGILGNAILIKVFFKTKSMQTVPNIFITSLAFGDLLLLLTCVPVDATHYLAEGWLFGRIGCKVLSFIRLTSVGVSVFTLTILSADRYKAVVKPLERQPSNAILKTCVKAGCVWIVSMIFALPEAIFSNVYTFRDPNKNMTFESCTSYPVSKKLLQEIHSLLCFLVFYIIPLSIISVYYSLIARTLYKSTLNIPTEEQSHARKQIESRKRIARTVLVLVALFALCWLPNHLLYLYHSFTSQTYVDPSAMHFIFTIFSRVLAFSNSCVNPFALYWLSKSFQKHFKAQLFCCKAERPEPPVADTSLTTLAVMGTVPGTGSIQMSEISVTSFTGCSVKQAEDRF
Protocol: Agonist Pharmacology at the Endogenous Human BRS-3 in NCI-N417 Cells
NCI-N417 cells were seeded into Costar 96 well black walled plates (30,000 cells per well), cultured overnight in RPMI 1640 medium containing 10% foetal calf serum and 1% L-glutamine, and then loaded with the cytoplasmic calcium indicator Fluo-3AM (4 μM) in the presence of 2.5 mM probenecid at 37° C. for 60 min. The cells were then washed 4× with, and finally resuspended in, Tyrode's medium containing 2.5 mM probenecid. Fluorescence was then monitored using a FLIPR (λEX=488 nm, λEM=540 nm) before and after the addition of various ligands (10 pM-10 μM), as described previously (Smart et al (1999). Br. J. Pharmacol. 128:1-4).

| Molecule | EC50 |
| --- | --- |
| CCCC[C@H](NC(=O)[C@H](Cc1ccccc1)NC(=O)[C@H](Cc1c[nH]cn1)NC(=O)CNC(=O)[C@@H](NC(=O)[C@H](C)NC(=O)[C@H](Cc1c[nH]c2ccccc12)NC(=O)[C@H](CCC(N)=O)NC(=O)[C@H](N)Cc1ccccc1)C(C)C)C(N)=O [[D-Phe^1, Nle^9]litorin] | 1100 nM |
| CCCNC(=O)[C@H](Cc1ccccc1)NC(=O)[C@H](Cc1c[nH]cn1)NC(=O)CNC(=O)[C@@H](NC(=O)[C@H](C)NC(=O)[C@H](Cc1c[nH]c2ccccc12)NC(=O)[C@H](CCC(N)=O)NC(=O)[C@H](N)Cc1ccccc1)C(C)C [[D-Phe^6, Phe^13]BN(6-13) propylamide] (H-[dF]QWAVGHF-NHPr; N-terminus assumed) | 148 nM |
| CCCNC(=O)[C@H](CC(C)C)NC(=O)[C@H](Cc1c[nH]cn1)NC(=O)CNC(=O)[C@@H](NC(=O)[C@H](C)NC(=O)[C@H](Cc1c[nH]c2ccccc12)NC(=O)[C@H](CCC(N)=O)NC(=O)[C@H](N)Cc1ccccc1)C(C)C [[D-Phe^6]BN(6-13) propylaniide] | 1380 nM |

same assay, conditions: calcium mobilisation, FLIPR, NCI-N417 cells, ligands 10 pM-10 μM; read-out: pEG50 (the source's name) (converted)

| Molecule | EC50 |
| --- | --- |
| CCCC[C@H](NC(=O)[C@H](Cc1ccccc1)NC(=O)[C@H](Cc1cnc[nH]1)NC(=O)CCNC(=O)[C@@H](NC(=O)[C@H](C)NC(=O)[C@H](Cc1c[nH]c2ccccc12)NC(=O)[C@H](CCC(N)=O)NC(=O)[C@H](N)Cc1ccc(O)cc1)C(C)C)C(N)=O [[D-Tyr^6, βAla^11, Phe^13, Nle^14]Bombesin(6-14)] (H-[dY]QWAV[βAla]HF[Nle]-NH2) | 9.55 nM |

same assay, conditions: calcium mobilisation, FLIPR, NCI-N417 cells; at 10 μM

| Molecule | Efficacy |
| --- | --- |
| CSCC[C@H](NC(=O)[C@H](CC(C)C)NC(=O)[C@H](Cc1cnc[nH]1)NC(=O)CNC(=O)[C@@H](NC(=O)[C@H](C)NC(=O)[C@H](Cc1c[nH]c2ccccc12)NC(=O)[C@H](CCC(N)=O)NC(=O)[C@H](CC(N)=O)NC(=O)CNC(=O)[C@H](CC(C)C)NC(=O)[C@H](CCCN=C(N)N)NC(=O)[C@H](CCC(N)=O)NC(=O)[C@@H]1CCC(=O)N1)C(C)C)C(N)=O [Bombesin] | 23% at 10 μM |

same assay, conditions: calcium mobilisation, FLIPR, NCI-N417 cells; efficacy in words

| Molecule | Efficacy |
| --- | --- |
| CSCC[C@H](NC(=O)[C@H](Cc1ccccc1)NC(=O)[C@H](Cc1c[nH]cn1)NC(=O)CNC(=O)[C@@H](NC(=O)[C@H](C)NC(=O)[C@H](Cc1c[nH]c2ccccc12)NC(=O)[C@H](CCC(N)=O)NC(=O)[C@@H]1CCCN1C(=O)CNC(=O)CNC(=O)CNC(=O)[C@@H]1CCC(=O)N1)C(C)C)C(N)=O [PG-L] ([pGlu]GGGPQWAVGHFM-NH2; C-terminus assumed) | full |
| CSCC[C@H](NC(=O)[C@H](Cc1ccccc1)NC(=O)[C@H](Cc1c[nH]cn1)NC(=O)CNC(=O)[C@@H](NC(=O)[C@H](C)NC(=O)[C@H](Cc1c[nH]c2ccccc12)NC(=O)[C@H](CCC(N)=O)NC(=O)[C@@H]1CCCN1C(=O)[C@@H](NC(=O)[C@@H]1CCC(=O)N1)C(C)C)C(C)C)C(N)=O [Ranantensin] ([pGlu]VPQWAVGHFM-NH2; C-terminus assumed) | full |
| CCCC[C@H](NC(=O)[C@H](Cc1ccccc1)NC(=O)[C@H](Cc1c[nH]cn1)NC(=O)CNC(=O)[C@@H](NC(=O)[C@H](C)NC(=O)[C@H](Cc1c[nH]c2ccccc12)NC(=O)[C@H](CCC(N)=O)NC(=O)[C@H](N)Cc1ccccc1)C(C)C)C(N)=O [[D-Phe^1, Nle^9]litorin] | full |
| CCCNC(=O)[C@H](Cc1ccccc1)NC(=O)[C@H](Cc1c[nH]cn1)NC(=O)CNC(=O)[C@@H](NC(=O)[C@H](C)NC(=O)[C@H](Cc1c[nH]c2ccccc12)NC(=O)[C@H](CCC(N)=O)NC(=O)[C@H](N)Cc1ccccc1)C(C)C [[D-Phe^6, Phe^13]BN(6-13) propylamide] (H-[dF]QWAVGHF-NHPr; N-terminus assumed) | full |
| CCCNC(=O)[C@H](CC(C)C)NC(=O)[C@H](Cc1c[nH]cn1)NC(=O)CNC(=O)[C@@H](NC(=O)[C@H](C)NC(=O)[C@H](Cc1c[nH]c2ccccc12)NC(=O)[C@H](CCC(N)=O)NC(=O)[C@H](N)Cc1ccccc1)C(C)C [[D-Phe^6]BN(6-13) propylaniide] | full |
| CCCC[C@H](NC(=O)[C@H](Cc1ccccc1)NC(=O)[C@H](Cc1c[nH]cn1)NC(=O)CCNC(=O)[C@@H](NC(=O)[C@H](C)NC(=O)[C@H](Cc1c[nH]c2ccccc12)NC(=O)[C@H](CCC(N)=O)NC(=O)[C@H](N)Cc1ccc(O)cc1)C(C)C)C(N)=O [[D-Tyr^6, βAla^11, Phe^13, Nle^14]Bombesin(6-14)] (H-[dY]QWAV[βAla]HF[Nle]-NH2) | full |
| AcNMB(3-10) | full |
| neuromedin B [NMB] | full |

target: T3, BRS3 (Homo sapiens, UniProt P32247); experiment: not given; details: background statement, in words; cited from earlier work
T3 sequence (P32247 1-399): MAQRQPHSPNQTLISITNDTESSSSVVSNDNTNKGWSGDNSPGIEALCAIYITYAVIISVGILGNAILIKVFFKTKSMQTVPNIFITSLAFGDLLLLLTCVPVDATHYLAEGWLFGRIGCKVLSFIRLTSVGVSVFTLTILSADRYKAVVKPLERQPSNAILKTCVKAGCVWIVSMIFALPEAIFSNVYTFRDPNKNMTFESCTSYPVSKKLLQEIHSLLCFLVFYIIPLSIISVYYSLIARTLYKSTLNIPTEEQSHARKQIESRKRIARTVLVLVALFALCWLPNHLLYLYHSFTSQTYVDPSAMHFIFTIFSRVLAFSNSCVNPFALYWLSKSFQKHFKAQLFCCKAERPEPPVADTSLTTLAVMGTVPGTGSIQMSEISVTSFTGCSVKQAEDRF

| Molecule | affinity at BRS3 |
| --- | --- |
| CSCC[C@H](NC(=O)[C@H](CC(C)C)NC(=O)[C@H](Cc1c[nH]cn1)NC(=O)CNC(=O)[C@@H](NC(=O)[C@H](C)NC(=O)[C@H](Cc1c[nH]c2ccccc12)NC(=O)[C@H](Cc1c[nH]cn1)NC(=O)[C@H](CC(N)=O)NC(=O)CNC(=O)[C@H](CCCNC(=N)N)NC(=O)[C@@H]1CCCN1C(=O)[C@H](Cc1ccc(O)cc1)NC(=O)[C@H](CCSC)NC(=O)[C@H](CCCCN)NC(=O)[C@@H](NC(=O)[C@H](CC(C)C)NC(=O)[C@@H](NC(=O)[C@@H](NC(=O)CNC(=O)CNC(=O)CNC(=O)[C@H](C)NC(=O)[C@@H]1CCCN1C(=O)[C@H](CC(C)C)NC(=O)[C@@H]1CCCN1C(=O)[C@@H](N)C(C)C)[C@@H](C)O)C(C)C)[C@@H](C)O)C(C)C)C(N)=O [GRP, gastrin-releasing peptide] | very low (high μM) affinity |
| neuromedin B [NMB] | very low (high μM) affinity |

— US20040023862A1, “Uses of bombesin receptor 3” (SmithKline Beedham p. l. c., priority 2000, published 2004)
